Test results reported in EP0690048A1, “Ortho-amino substituted benzoylguanidines, process for their preparation, their use as medicine or diagnostic and medicines containing them” (HOECHST AKTIENGESELLSCHAFT, priority 1994, dated 1996).
Where a name gives a salt, the structure may show the parent alone.

Target: T1, Na⁺/H⁺-Exchangers von Kaninchenerythrocyten (Oryctolagus cuniculus, UniProt P23791)
T1 construct: den Na⁺-Influx in die Erythrocyten via Na⁺/H⁺-Austausch flammenphotometrisch bestimmen zu können; endogenous in cells; host or cells: erythrocytes in blood from the ear arteries of cholesterol-fed White New Zealand rabbits
T1 sequence (P23791 whole entry): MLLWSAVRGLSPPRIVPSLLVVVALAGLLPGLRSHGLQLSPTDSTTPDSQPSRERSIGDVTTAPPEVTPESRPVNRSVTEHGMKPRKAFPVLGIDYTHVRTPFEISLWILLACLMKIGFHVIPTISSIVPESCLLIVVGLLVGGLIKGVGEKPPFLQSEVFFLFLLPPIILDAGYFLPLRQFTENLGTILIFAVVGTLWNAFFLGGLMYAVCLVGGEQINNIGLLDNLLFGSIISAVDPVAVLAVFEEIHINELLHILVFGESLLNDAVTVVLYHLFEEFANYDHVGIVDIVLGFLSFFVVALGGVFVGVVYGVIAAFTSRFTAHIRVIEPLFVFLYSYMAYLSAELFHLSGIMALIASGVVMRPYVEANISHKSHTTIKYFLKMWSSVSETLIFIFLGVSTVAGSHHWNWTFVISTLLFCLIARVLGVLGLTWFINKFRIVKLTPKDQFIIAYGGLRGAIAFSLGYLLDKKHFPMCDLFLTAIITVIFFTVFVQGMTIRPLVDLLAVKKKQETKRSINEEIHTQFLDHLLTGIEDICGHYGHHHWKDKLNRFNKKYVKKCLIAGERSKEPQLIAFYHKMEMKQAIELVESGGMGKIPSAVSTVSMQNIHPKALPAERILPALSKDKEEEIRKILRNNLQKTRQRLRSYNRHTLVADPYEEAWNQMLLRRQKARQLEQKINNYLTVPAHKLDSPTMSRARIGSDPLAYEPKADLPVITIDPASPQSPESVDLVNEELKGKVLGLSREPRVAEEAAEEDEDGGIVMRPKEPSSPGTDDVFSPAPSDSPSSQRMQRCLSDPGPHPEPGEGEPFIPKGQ
Test: Inhibition of the Na+/H+ exchanger of rabbit erythrocytes (amiloride-sensitive sodium influx, flame photometry)
Type: cell-based, Kaninchen
Settings: Inhibition des Na⁺/H⁺-Exchangers, hyperosmolares Salz-Sucrose-Medium, pH 7,4, 37°C, read-out: IC₅₀
Description: Inhibition des Na⁺/H⁺-Exchangers von Kaninchenerythrocyten
Weiße Neuseeland-Kaninchen (Ivanovas) erhielten eine Standard-Diät mit 2% Cholesterin für sechs Wochen, um den Na⁺/H⁺-Austausch zu aktivieren und so den Na⁺-Influx in die Erythrocyten via Na⁺/H⁺-Austausch flammenphotometrisch bestimmen zu können. Das Blut wurde den Ohrarterien entnommen und durch 25 IE Kalium-Heparin ungerinnbar gemacht. Ein Teil jeder Probe wurde zur Doppelbestimmung des Hämatokrits durch Zentrifugieren benutzt. Aliquots von jeweils 100 µl dienten zur Messung des Na⁺-Ausgangsgehalts der Erythrocyten.
Um den Amilorid-sensitiven Natrium-Influx zu bestimmen, wurden 100 µl jeder Blutprobe in jeweils 5 ml eines hyperosmolaren Salz-Sucrose-Mediums (mmol/l: 140 NaCl, 3 KCl, 150 Sucrose, 0,1 Ouabain, 20 Tris-hydroxymethylaminomethan) bei pH 7,4 und 37°C inkubiert. Die Erythrozyten wurden danach dreimal mit eiskalter MgCl₂-Ouabain-Lösung (mmol/l: 112 MgCl₂, 0,1 Ouabain) gewaschen und in 2,0 ml destilliertem Wasser hämolysiert. Der intrazelluläre Natriumgehalt wurde flammenphotometrisch bestimmt.
Der Na⁺-Nettoinflux wurde aus der Differenz zwischen Natrium-Ausgangswerten und dem Natriumgehalt der Erythrocyten nach Inkubation errechnet. Der Amilorid-hemmbare Natrium-Influx ergab sich aus der Differenz des Natriumgehalts der Erythrocyten nach Inkubation mit und ohne Amilorid 3 x 10⁻⁴ mol/l. Auf diese Weise wurde auch bei den erfindungsgemäßen Verbindungen verfahren.

Row | SMILES | IC50 [µM]
1 | NC(N)=NC(=O)c1cc(S(N)(=O)=O)c(Cl)cc1N [Beispiel 1, 2-Amino-4-chloro-5-sulfamoyl-benzoylguanidin-dihydrochlorid] | 2 to 3
2 | NC(N)=NC(=O)c1cc(Cl)ccc1N [Beispiel 9, 2-Amino-5-chloro-benzoylguanidin-dihydrochlorid] | 1 to 2
3 | NC(N)=NC(=O)c1cc(Br)c(Br)cc1N [Beispiel 11, 2-Amino-4,5-dibromo-benzoylguanidin] | 0.1
4 | CN(C)c1ccc(Cl)cc1C(=O)N=C(N)N [Beispiel 12, 2-Dimethylamino-5-chloro-benzoylguanidin-dihydrochlorid] | 1 to 2
